Measurements from patent publication US8470587B2, “129Xe biosensors and their use” (The Trustees of the University of Pennsylvania, priority 2006, dated 2013).
Ends that are not written are not given here.

Assays:
[1] = 278 K in C2D2Cl4; cited from earlier work
[2] = system: lung and pancreatic cancer cell lines; experiment: cell uptake of tetraRGD Xe biosensor, blocking by cyclic RGD peptide; assay type: cell-based
Description: Very efficient uptake by Xe biosensors containing tetraRGD was found in lung and pancreatic cancer cell lines, and no uptake by red blood cells, as shown in FIGS. 26 and 27.

[3] = system: NCI-H1975; experiment: cellular uptake by confocal microscopy; assay type: cell-based; details: 15 minutes incubation; 2 μM, 2 mM; cells expressing αvβ3 integrin
Method: (§1) Cells were incubated with 2 mM tetraRGD-cryptophane for 15 minutes, washed, and imaged via confocal microscope. […] A-B) CAPAN-2, C-D) HFL-1, E-F) NCI-H1975, G-H) human red blood cells.
(§2) Cellular uptake was confirmed via confocal microscopy. Cells were incubated with 2 μM tetraRGD-cryptophane for 15 minutes, washed, and imaged via confocal microscope. […] A-B) CAPAN-2, C-D) HFL-1, E-F) NCI-H1975, G-H) human red blood cells.

[4] = system: human red blood cells; experiment: cellular uptake by confocal microscopy; assay type: cell-based; details: 15 minutes incubation; 2 μM, 2 mM; cells not expressing αvβ3; listed as tetraRGD-cryptophane
Method: as §1, §2

[5] = system: CAPAN-2; experiment: cellular uptake by confocal microscopy; assay type: cell-based; details: 15 minutes incubation; 2 μM, 2 mM; cells expressing αvβ3 integrin
Method: as §1, §2

[6] = system: HFL-1; experiment: cellular uptake by confocal microscopy; assay type: cell-based; details: 15 minutes incubation; 2 μM, 2 mM; cells expressing αvβ3 integrin
Method: as §1, §2

[7] = system: cells; experiment: cytotoxicity, standard MTT assay; assay type: cell-based; details: 1-100 μM, 24 h soak, average of four trials
Method: Cytotoxicity was assessed using a standard MTT assay protocol.

| Molecule | KA of xenon binding [1] [M⁻¹] | cell uptake in presence of cyclic RGD peptide [2] | cellular uptake (fluorescence) [3] | cellular uptake (fluorescence) [4] | cellular uptake (fluorescence) [5] | cellular uptake (fluorescence) [6] | cytotoxicity (cell viability relative to healthy controls) [7] | cytotoxicity (cell viability relative to healthy controls) ([7]; listed as Cy3 dye-labeled ^129Xe biosensor) |
| --- | --- | --- | --- | --- | --- | --- | --- | --- |
| COc1cc2c3cc1OCCOc1cc4c(cc1OC)Cc1cc5c(OC)cc1Cc1cc(c(OC)cc1C4)OCCOc1cc(c(cc1OC)C3)Cc1cc(OC)c(cc1C2)OCCO5 [cryptophane-A] | 3900 |  |  |  |  |  |  |  |
| Cy3-labelled ^129Xe biosensor: cryptophane biosensor containing the tetra-RGD peptide (RGDRGDRGDRGD, SEQ ID. No. 30), labeled with Cy3, targeting αvβ3 integrin (also: cryptophane cage conjugated, Cy3 labeled; listed as Homo sapiens) |  | blocked | exhibited fluorescence | showed little fluorescence | exhibited fluorescence | exhibited fluorescence | non-toxic | not toxic |
